One data set deals with Bmi-1. The data set is described as follows: Sandwich ELISA Assay (Bmi-1 ELISA) in HT-1080 cells. It counts as cell-based. In short, it runs like this: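 Bmi-1 in lysates was measured by a three-antibody ELISA with TMB, OD450 minus OD570 reference, interpolated on a GST-tagged recombinant Bmi-1 standard curve, 0-8000 pg/mL. Lysates came from HT-1080 cells treated 40-48 h with compound, final DMSO 0.5%.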
For orientation: In an ELISA, binding on a coated surface is turned into a signal by an enzyme label.

For the next data set, the system named is U87-MG tumor cells. The data set is described as follows: In Vivo Survival Assay, orthotopic model of glioblastoma. More on the design: species or system nu/nu mice. Particulars: daily dosing begun 10 days after intracranial implantation, 40 day time period, versus vehicle and temozolomide (p<0.0001). How it is done: A glioblastoma animal model was developed in which U87-MG tumor cells were injected intracranially into nu/nu mice and a tumor was allowed to become established over a 10 day period. The mice were dosed daily with vehicle, Compound 109 or temozolomide (a standard-of-care agent), as indicated. The comparative results for survival for each treatment group (n=10) from administration of vehicle, Compound 109 and temozolomide are shown in FIG. 4.
Cells were implanted intracranially into nude mice and dosing was begun 10 days later with either vehicle, Compound 109 or temozolomide.

For data set [1], the system named is CSC population in a BXD GBM model. The data set is described as follows: In Vitro Cancer Stem Cell Assay, BXD GBM model (number of neurospheres). It counts as cell-based. Particulars: 13 days, stated concentrations. How it is done:
In Vitro Cancer Stem Cell Assay
The effect on inhibition of Bmi-1 function and reduction in the level of Bmi-1 protein by a compound of Formula (I) or a form thereof was tested in the in vitro pediatric Baylor Xenograft Derived (BXD) brain tumor model and in cells from primary patient cultures (PPC).
Cells were grown under conditions to measure either general cell growth (such as in fetal bovine serum (FBS) containing media in conventional tissue culture plates) or in conditions specifically for cancer stem cell (CSC) growth (low serum, nonadherent plates) to assess the effect of Bmi-1 inhibition and reduction in the level of Bmi-1 protein by a compound of Formula (I) on these populations. The cells were treated with a predetermined dose range of Compound 109 at fixed time points over a time period of from 24 hours to 13 days. The effect of inhibition on cell growth viability was quantitated using conventional 2D growth and neurosphere growth using a cell-counting kit (CCK) (supplied by Dojindo Molecular Technologies, Inc.).

In general, EC50 refers to the concentration that produces a half-maximal response. Low readings indicate greater potency, high ones weaker potency. In the data set with Bmi-1, `Cc1nc2ccc(F)cc2n1-c1nc(N)c(F)c(Nc2ccc(C(F)(F)F)cc2)n1` [Cpd 109, 5-fluoro-2-(6-fluoro-2-methyl-1H-benzimidazol-1-yl)-N-[4-(trifluoromethyl)phenyl]pyrimidine-4,6-diamine] gave an EC50 of 10 to 100 nM. In the data set with U87-MG tumor cells, the “survival of tumor bearing mice, FIG. 4” value is given as “extended survival”. In data set [1], the “CSC population (as measured by number of neurospheres), FIG. 1” value is “dose dependently reduced” and the “CSC population (as measured by number of neurospheres), FIG. 2” value was “universally reduced”.
For orientation: melting point means the temperature of the solid-liquid transition. In turn, `Cc1nc2ccc(F)cc2n1-c1nc(N)cc(Nc2ccc3c(c2)OC(F)(F)O3)n1` [Cpd 269, N-(2,2-difluoro-1,3-benzodioxol-5-yl)-2-(6-fluoro-2-methyl-1H-benzimidazol-1-yl)pyrimidine-4,6-diamine] displayed a melting point of 212 to 215 °C. This molecule showed an EC50 in the data set on Bmi-1 of 100 to 3000 nM.
